Reference: ChEMBL document CHEMBL1152970, “Optimization of a series of 2,4-diaminopyridines as neuropeptide Y Y1 receptor antagonists with reduced hERG activity” (Bioorg Med Chem Lett, 2009)

What was measured:
physchem = settings: octanol/water, pH 7.4
Brain [1] = assay: Drug level in mdr1a deficient CF-1 mouse brain at 30 mg/kg, ip after 30 mins; type: ADME, organism-based; parameters: dose 30 mg/kg, route intraperitoneal; settings: in vivo, 0.5 h
[2] = Plasma concentration in C57BL/6 mouse plasma at 30 mg/kg, ip after 30 mins; type: ADME, organism-based, C57BL6; parameters: dose 30 mg/kg, route intraperitoneal
[3] = Ratio of drug level in brain to plasma in C57BL/6 mouse at 30 mg/kg, ip after 30 mins; type: ADME, organism-based, C57BL6; parameters: dose 30 mg/kg, route intraperitoneal
Brain [4] = assay: Drug level in C57BL/6 mouse brain at 30 mg/kg, ip after 30 mins; type: ADME, organism-based, C57BL6; parameters: dose 30 mg/kg, route intraperitoneal; settings: in vivo, 0.5 h
[5] = Ratio of drug level in brain to plasma in mdr1a deficient CF-1 mouse at 30 mg/kg, ip after 30 mins; type: ADME, organism-based; parameters: dose 30 mg/kg, route intraperitoneal; settings: CF-1 (mdr1a deficient)
[6] = Plasma concentration in mdr1a deficient CF-1 mouse at 30 mg/kg, ip after 30 mins; type: ADME, organism-based; parameters: dose 30 mg/kg, route intraperitoneal; settings: CF-1 (mdr1a deficient)

With Cc1nc(SCc2cc(N3CCOCC3)cc(NCC#N)n2)n(C)c1C the logD (physchem) was 1.

CCc1oc(SCc2cc(N3CCOCC3)cc(NCC#N)n2)nc1C showed a logD (physchem) of 2.6.

For CCc1oc(CCc2cc(N3CCOCC3)cc(NCC#N)n2)nc1C, the logD (physchem) was 2.4.

With CCc1oc(CCc2cc(N3CCOCC3)cc(NC(C)C)n2)nc1C the logD (physchem) was 2.4.

With CCCNc1cc(N2CCOCC2)cc(CCc2nc(C)c(CC)o2)n1 the logD (physchem) was 2.5.

Molecule CCc1oc(CCc2cc(N3CCOCC3)cc(NC(C)=O)n2)nc1C has a logD (physchem) of 2.3.

With CCc1oc(CCc2cc(N3CCOCC3)cc(NCC(F)(F)F)n2)nc1C the logD (physchem) was 3.5.

For Cc1nc(OCc2cc(N3CCOCC3)cc(NCC#N)n2)oc1C, the logD (physchem) was 2.1.

Cc1nc(SCc2cc(N3CCOCC3)cc(NCC#N)n2)sc1C showed a Drug uptake (Brain [1]) of 4.7 nmol/g, a concentration at 0.5 h [2] of 3.4 µM and a Kp at 0.5 h [3] of 0.27. It also gave a Drug uptake (Brain [4]) of 0.9 nmol/g, a Kp at 0.5 h [5] of 0.9 and a concentration at 0.5 h [6] of 5.2 µM. It also gave a logD (physchem) of 2.4.

For CCc1oc(CCc2cc(N3CCOCC3)cc(NCCC#N)n2)nc1C, the logD (physchem) was 2.

Work on CCOC(=O)CNc1cc(N2CCOCC2)cc(CCc2nc(C)c(CC)o2)n1 yielded a logD (physchem) of 2.8.

For Cc1nc(SCc2cc(N3CCOCC3)cc(NCC#N)n2)oc1C, the logD (physchem) was 2.

In the case of CCNc1cc(N2CCOCC2)cc(CCc2nc(C)c(CC)o2)n1, the logD (physchem) is reported as 2.2.

With CCc1sc(CCc2cc(N3CCOCC3)cc(NC(C)c3cc(Cl)cc(NC(=O)OC(C)C)c3)n2)nc1C (stereo unspecified) the logD (physchem) was over 4.

In the case of CCc1oc(CCc2cc(N3CCOCC3)cc(NC)n2)nc1C, the logD (physchem) is reported as 1.7.
